Reference: PubChem BioAssay (NCI)
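These data come from cells grown in 96-well plates and exposed to compound for 48 hours at five concentrations. TGI marks complete inhibition of growth.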

Assays:
Assay in all cases: DTP human tumour cell line panel, 48 h
OVCAR-5 ovarian = tested on: OVCAR-5 ovarian
SK-MEL-28 melanoma = tested on: SK-MEL-28 melanoma
UACC-257 melanoma = tested on: UACC-257 melanoma
UACC-62 melanoma = tested on: UACC-62 melanoma
SF-539 CNS = tested on: SF-539 CNS
CCRF-CEM leukemia = tested on: CCRF-CEM leukemia
SN12C renal = tested on: SN12C renal
LOX IMVI melanoma = tested on: LOX IMVI melanoma
MDA-MB-435 = tested on: MDA-MB-435
A498 renal = tested on: A498 renal
CAKI-1 renal = tested on: CAKI-1 renal
K-562 leukemia = tested on: K-562 leukemia

Row | SMILES | TGI (OVCAR-5 ovarian) [µM] | TGI (SK-MEL-28 melanoma) [µM] | TGI (UACC-257 melanoma) [µM] | TGI (UACC-62 melanoma) [µM] | TGI (SF-539 CNS) [µM] | TGI (CCRF-CEM leukemia) [µM] | TGI (SN12C renal) [µM] | TGI (LOX IMVI melanoma) [µM] | TGI (MDA-MB-435) [µM] | TGI (A498 renal) [µM] | TGI (CAKI-1 renal) [µM] | TGI (K-562 leukemia) [µM]
1 | N#CCN1CCN(CC#N)CCN(CC#N)CCN(CC#N)CC1 | > 100 | > 100 | > 100 | > 100 | > 100 | > 100 | > 100 | > 100 | > 100 | > 100 | > 100 | > 100
2 | O=C1OC(C2Cc3ccc4c(c3C2=O)CCCC4)c2ccccc21 (stereo unspecified) | > 100 | > 100 | > 100 | 69.9 | 66.7 | > 100 | > 100 | > 100 | > 100 | 53.6 | > 100 | > 100
3 | COc1cc(OC)c2nc(C)c3c(c2c1)OCC3 | > 100 | > 100 | > 100 | > 100 | > 100 | > 100 | > 100 | > 100 | > 100 | > 100 | 72 | > 100
